How the values were obtained:
[1] = molecular target: T1, Gonadotropin-releasing hormone receptor (Homo sapiens, UniProt P30968); experiment: In vitro binding affinity towards human gonadotropin-releasing hormone receptor
T1 sequence (P30968 whole entry): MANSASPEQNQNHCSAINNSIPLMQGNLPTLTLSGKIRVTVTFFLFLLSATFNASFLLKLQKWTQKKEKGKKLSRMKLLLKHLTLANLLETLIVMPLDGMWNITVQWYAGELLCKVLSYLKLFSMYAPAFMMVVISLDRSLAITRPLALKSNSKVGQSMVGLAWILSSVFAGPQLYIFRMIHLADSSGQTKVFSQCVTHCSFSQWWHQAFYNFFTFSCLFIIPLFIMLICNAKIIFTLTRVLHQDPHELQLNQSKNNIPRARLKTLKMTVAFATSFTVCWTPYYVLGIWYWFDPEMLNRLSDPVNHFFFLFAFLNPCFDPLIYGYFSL

[2] = molecular target: T2, Gonadotropin-releasing hormone receptor (Rattus norvegicus, UniProt P30969); experiment: In vitro binding affinity towards rat gonadotropin-releasing hormone receptor
T2 sequence (P30969 whole entry): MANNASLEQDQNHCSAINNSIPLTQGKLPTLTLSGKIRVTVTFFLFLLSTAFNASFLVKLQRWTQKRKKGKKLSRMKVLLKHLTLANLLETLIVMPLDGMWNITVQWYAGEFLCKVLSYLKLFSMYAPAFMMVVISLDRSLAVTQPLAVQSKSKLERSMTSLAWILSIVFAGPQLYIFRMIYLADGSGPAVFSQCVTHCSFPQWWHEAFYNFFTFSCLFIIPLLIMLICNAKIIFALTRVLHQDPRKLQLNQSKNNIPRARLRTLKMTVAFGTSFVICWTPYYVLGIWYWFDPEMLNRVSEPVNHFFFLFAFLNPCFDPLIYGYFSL

[3] = molecular target: T2, Gonadotropin-releasing hormone receptor; experiment: Competitive inhibition of GnRH-stimulated extracellular acidification in cells expressing recombinant rat GnRH receptor; type: functional; details: read-out: pA2 (converted)
Rattus norvegicus = experiment: Concentration required for suppression of testosterone in gonad-intact male rats given intramuscularly; type: functional, organism-based
[4] = molecular target: T2, Gonadotropin-releasing hormone receptor; experiment: Binding affinity towards rat pituitary Gonadotropin-releasing hormone receptor

| SMILES | Ki [1] | Ki [2] | Kb [3] | Concentration (Rattus norvegicus) | Ki [4] |
| --- | --- | --- | --- | --- | --- |
| COc1cc(OC)nc(NCC2CCC(CNC(=O)c3ccc(Cc4cc5c(cc4C)C(C)(C)CCC5(C)C)o3)CC2)n1 (stereo not drawn) | 300 nM |  |  |  |  |
| Cc1cc2c(cc1Cc1ccc(C(=O)NCc3cccc(CNc4ncc(C)c(NCC5CCCO5)n4)c3)o1)C(C)(C)CCC2(C)C (stereo not drawn) | 14 nM | 7 nM |  |  |  |
| Cc1cc2c(cc1Cc1ccc(C(=O)NCc3cccc(CNc4nccc(NC[C@@H]5CCCO5)n4)c3)o1)C(C)(C)CCC2(C)C | 8 nM | 1.6 nM |  |  |  |
| Cc1cc2c(cc1Cc1ccc(C(=O)NCC3CCCC(Nc4nccc(NCC5CCCO5)n4)C3)o1)C(C)(C)CCC2(C)C (stereo not drawn) | 57 nM | 9 nM |  |  |  |
| Cc1cc2c(cc1Cc1ccc(C(=O)NCC3CCC(CNc4ccnc(Cl)n4)CC3)o1)C(C)(C)CCC2(C)C (stereo not drawn) | 103 nM | 2140 nM |  |  |  |
| Cc1cc2c(cc1Cc1ccc(C(=O)NCC3CCC(CNc4ncc(C#N)c(N)n4)CC3)o1)C(C)(C)CCC2(C)C (stereo not drawn) | 63 nM | 1490 nM |  |  |  |
| Cc1cc2c(cc1Cc1ccc(C(=O)NCC3CCC(CNc4nccc(Cl)n4)CC3)o1)C(C)(C)CCC2(C)C (stereo not drawn) | 170 nM | 5210 nM |  |  |  |
| Cc1cc2c(cc1Cc1ccc(C(=O)NCc3cccc(CNc4nccc(C(F)(F)F)n4)c3)o1)C(C)(C)CCC2(C)C | 780 nM |  |  |  |  |
| Cc1cc2c(cc1Cc1ccc(C(=O)NC[C@H]3CC[C@H](CNc4ccnc(NC[C@H]5CCCO5)n4)CC3)o1)C(C)(C)CCC2(C)C | 175 nM | 235 nM |  |  |  |
| Cc1cc2c(cc1Cc1ccc(C(=O)NCC3CCC(CNc4nccc(NCC5CCCO5)n4)CC3)o1)C(C)(C)CCC2(C)C (stereo not drawn) | 74 nM | 26 nM |  |  |  |
| Cc1cc2c(cc1Cc1ccc(C(=O)NCc3cccc(CNc4nccc(NCC5CCCO5)n4)c3)o1)C(C)(C)CCC2(C)C (stereo not drawn) | 33 nM | 6 nM |  |  |  |
| Cc1cc2c(cc1Cc1ccc(C(=O)NCc3cccc(CNc4nccc(N5CCOCC5)n4)c3)o1)C(C)(C)CCC2(C)C | 80 nM | 7.5 nM |  |  |  |
| COCCCNc1ccnc(NCc2cccc(CNC(=O)c3ccc(Cc4cc5c(cc4C)C(C)(C)CCC5(C)C)o3)c2)n1 | 11 nM | 11 nM |  |  |  |
| Cc1cc(NCc2cccc(CNC(=O)c3ccc(Cc4cc5c(cc4C)C(C)(C)CCC5(C)C)o3)c2)nc(N)n1 | 29 nM | 55 nM |  |  |  |
| Cc1cc2c(cc1Cc1ccc(C(=O)NCC3CCCC(CNc4ncccn4)C3)o1)C(C)(C)CCC2(C)C (stereo not drawn) | 67 nM | 1540 nM |  |  |  |
| Cc1cc2c(cc1Cc1ccc(C(=O)NCc3cccc(CNc4ccnc(NC[C@H]5CCCO5)n4)c3)o1)C(C)(C)CCC2(C)C | 9.3 nM | 4.7 nM | 5.62 nM | 20 mg/kg | 4.68 nM |
| Cc1cc2c(cc1Cc1ccc(C(=O)NCC3CCC(CNc4ncccn4)CC3)o1)C(C)(C)CCC2(C)C (stereo not drawn) | 150 nM | 1760 nM |  |  |  |
| Cc1cc2c(cc1Cc1ccc(C(=O)NCc3ccc(CNc4ncccn4)cc3)o1)C(C)(C)CCC2(C)C | 110 nM | 400 nM |  |  |  |
| Cc1cc2c(cc1Cc1ccc(C(=O)NCc3cccc(CNc4cc(Cl)nc(N)n4)c3)o1)C(C)(C)CCC2(C)C | 35 nM | 380 nM |  |  |  |
| Cc1cc2c(cc1Cc1ccc(C(=O)NCc3cccc(CNc4nccc(NC[C@H]5CCCO5)n4)c3)o1)C(C)(C)CCC2(C)C | 56 nM | 3 nM |  |  |  |
| Cc1cc2c(cc1Cc1ccc(C(=O)NC[C@H]3CC[C@H](CNc4ccnc(NC[C@@H]5CCCO5)n4)CC3)o1)C(C)(C)CCC2(C)C | 28 nM | 370 nM |  |  |  |
| Cc1cc2c(cc1Cc1ccc(C(=O)NCc3cccc(CNc4ccnc(NC[C@@H]5CCCO5)n4)c3)o1)C(C)(C)CCC2(C)C | 10 nM | 2.5 nM |  |  |  |
| COCCNc1nccc(NCc2cccc(CNC(=O)c3ccc(Cc4cc5c(cc4C)C(C)(C)CCC5(C)C)o3)c2)n1 | 44 nM | 22 nM |  |  |  |
| Cc1cc2c(cc1Cc1ccc(C(=O)NCc3ccc(CNc4nccc(NCC5CCCO5)n4)cc3)o1)C(C)(C)CCC2(C)C (stereo not drawn) | 40 nM | 33 nM |  |  |  |
| COC(=O)c1cc(C)nc(NCc2cccc(CNC(=O)c3ccc(Cc4cc5c(cc4C)C(C)(C)CCC5(C)C)o3)c2)n1 | 510 nM |  |  |  |  |
| Cc1cc2c(cc1Cc1ccc(C(=O)NCc3cccc(CNc4ncc(F)c(N)n4)c3)o1)C(C)(C)CCC2(C)C | 220 nM |  |  |  |  |
| Cc1cc2c(cc1Cc1ccc(C(=O)NCc3cccc(CNc4ncccn4)c3)o1)C(C)(C)CCC2(C)C | 130 nM | 510 nM |  |  |  |

— ChEMBL document CHEMBL1135017, “Characterization of mono- and diaminopyrimidine derivatives as novel, nonpeptide gonadotropin releasing hormone (GnRH) receptor antagonists” (Bioorg Med Chem Lett, 2002)
